Measured values reported in ChEMBL document CHEMBL3525933 (Drug Metab Dispos, 2012).

Legend:
Plasma [1] = assay: Drug metabolism in pseudo-germ free Wistar rat plasma assessed as norathyriol metabolite formation at 400 mg/kg, po administered as single dose by HPLC-DAD analysis; type: ADME, organism-based; parameters: dose 400 mg/kg, route oral; settings: in vivo
[2] = MRT(0 to infinity) in streptozotocin-induced diabetic Wistar rat at 400 mg/kg, po administered as single dose by HPLC-DAD analysis; type: ADME, organism-based; parameters: dose 400 mg/kg, route oral; settings: in vivo
Plasma [3] = assay: Drug metabolism in streptozotocin-induced diabetic Wistar rat plasma assessed as norathyriol metabolite formation at 400 mg/kg, po administered as single dose by HPLC-DAD analysis; type: ADME, organism-based; parameters: dose 400 mg/kg, route oral; settings: in vivo
Plasma [4] = assay: Drug level in streptozotocin-induced diabetic Wistar rat plasma treated with mangiferin at 400 mg/kg, po administered as single dose by HPLC-DAD analysis; type: ADME, organism-based; parameters: dose 400 mg/kg, route oral; settings: in vivo
[5] = Elimination half life in conventional Wistar rat at 400 mg/kg, po administered as single dose by HPLC-DAD analysis; type: ADME, organism-based; parameters: dose 400 mg/kg, route oral; settings: in vivo, read-out: beta t1/2 (converted)
[6] = AUC(0 to infinity) in conventional Wistar rat at 400 mg/kg, po administered as single dose by HPLC-DAD analysis; type: ADME, organism-based; parameters: time infinity, dose 400 mg/kg, route oral; settings: plasma
[7] = Cmax in conventional Wistar rat at 400 mg/kg, po administered as single dose by HPLC-DAD analysis; type: ADME, organism-based; parameters: dose 400 mg/kg, route oral; settings: in vivo
Plasma [8] = assay: Stability in Wistar rat plasma measured after storage at -80 degC for 20 days by HPLC-DAD analysis; type: ADME, cell-free; settings: 480 h
[9] = Drug excretion in streptozotocin-induced diabetic Wistar rat urine assessed as 1,7-dihydroxyxanthone metabolite level at 400 mg/kg, po administered as single dose by HPLC-DAD analysis; type: ADME, organism-based; parameters: dose 400 mg/kg, route oral; settings: in vivo
[10] = Elimination half life in pseudo-germ free Wistar rat at 400 mg/kg, po administered as single dose by HPLC-DAD analysis; type: ADME, organism-based; parameters: dose 400 mg/kg, route oral; settings: in vivo, read-out: beta t1/2 (converted)
Plasma [11] = assay: Drug recovery in Wistar rat plasma at 100 ng/ml by HPLC-DAD analysis; type: ADME, cell-free
[12] = Apparent oral clearance in conventional Wistar rat at 400 mg/kg, po administered as single dose by HPLC-DAD analysis; type: ADME, organism-based; parameters: dose 400 mg/kg, route oral; settings: in vivo
[13] = Drug excretion in streptozotocin-induced diabetic Wistar rat urine assessed as norathyriol metabolite level at 400 mg/kg, po administered as single dose by HPLC-DAD analysis; type: ADME, organism-based; parameters: dose 400 mg/kg, route oral; settings: in vivo
Plasma [14] = assay: Drug metabolism in conventional Wistar rat plasma assessed as norathyriol metabolite formation at 400 mg/kg, po administered as single dose by HPLC-DAD analysis; type: ADME, organism-based; parameters: dose 400 mg/kg, route oral; settings: in vivo
[15] = Drug excretion in pseudo-germ free Wistar rat urine assessed as norathyriol metabolite level at 400 mg/kg, po administered as single dose by HPLC-DAD analysis; type: ADME, organism-based; parameters: dose 400 mg/kg, route oral; settings: in vivo
[16] = Drug excretion in conventional Wistar rat urine assessed as 1,7-dihydroxyxanthone metabolite level at 400 mg/kg, po administered as single dose by HPLC-DAD analysis; type: ADME, organism-based; parameters: dose 400 mg/kg, route oral; settings: in vivo
[17] = Drug excretion in pseudo-germ free Wistar rat feces assessed as 1,7-dihydroxyxanthone metabolite level at 400 mg/kg, po administered as single dose by HPLC-DAD analysis; type: ADME, organism-based; parameters: dose 400 mg/kg, route oral; settings: in vivo
Rattus norvegicus = species: Rattus norvegicus; assay: Drug retention time in Wistar rat by HPLC-DAD analysis; type: ADME, organism-based
[18] = Drug excretion in pseudo-germ free Wistar rat feces assessed as unchanged drug level at 400 mg/kg, po administered as single dose by HPLC-DAD analysis; type: ADME, organism-based; parameters: dose 400 mg/kg, route oral; settings: in vivo
Plasma [19] = assay: Drug uptake in streptozotocin-induced diabetic Wistar rat plasma at 400 mg/kg, po administered as single dose by HPLC-DAD analysis; type: ADME, organism-based; parameters: dose 400 mg/kg, route oral; settings: in vivo
Plasma [20] = assay: Stability in Wistar rat plasma measured for 24 hrs at room temperature by HPLC-DAD analysis; type: ADME, cell-free
[21] = Tmax in conventional Wistar rat at 400 mg/kg, po administered as single dose by HPLC-DAD analysis; type: ADME, organism-based; parameters: dose 400 mg/kg, route oral; settings: in vivo
[22] = Drug excretion in conventional Wistar rat urine assessed as norathyriol metabolite level at 400 mg/kg, po administered as single dose by HPLC-DAD analysis; type: ADME, organism-based; parameters: dose 400 mg/kg, route oral; settings: in vivo
[23] = Cmax in pseudo-germ free Wistar rat at 400 mg/kg, po administered as single dose by HPLC-DAD analysis; type: ADME, organism-based; parameters: dose 400 mg/kg, route oral; settings: in vivo
[24] = Drug excretion in pseudo-germ free Wistar rat feces assessed as norathyriol metabolite level at 400 mg/kg, po administered as single dose by HPLC-DAD analysis; type: ADME, organism-based; parameters: dose 400 mg/kg, route oral; settings: in vivo
[25] = Tmax in pseudo-germ free Wistar rat at 400 mg/kg, po administered as single dose by HPLC-DAD analysis; type: ADME, organism-based; parameters: dose 400 mg/kg, route oral; settings: in vivo
[26] = Drug excretion in streptozotocin-induced diabetic Wistar rat feces assessed as norathyriol metabolite level at 400 mg/kg, po administered as single dose by HPLC-DAD analysis; type: ADME, organism-based; parameters: dose 400 mg/kg, route oral; settings: in vivo
[27] = Elimination half life in streptozotocin-induced diabetic Wistar rat at 400 mg/kg, po administered as single dose by HPLC-DAD analysis; type: ADME, organism-based; parameters: dose 400 mg/kg, route oral; settings: in vivo, read-out: beta t1/2 (converted)
[28] = MRT(0 to infinity) in pseudo-germ free Wistar rat at 400 mg/kg, po administered as single dose by HPLC-DAD analysis; type: ADME, organism-based; parameters: dose 400 mg/kg, route oral; settings: in vivo

Drug metabolism (Plasma [1]): metabolite_not_detected
MRT inf [2]: 5.45 h
Drug metabolism (Plasma [3]): metabolite_not_detected
Drug metabolism (Plasma [4]): metabolite_detected
half-life [5]: 2.47 h
AUC(0-inf) [6]: 3820 ng·h/mL
Cmax [7]: 715 ng/mL
Stability (Plasma [8]): Stable
Drug excretion [9]: metabolite_detected
half-life [10]: 2.59 h
Drug recovery (Plasma [11]): 78.4%
CL/F [12]: 2030 mL/min/kg
Drug excretion [13]: metabolite_detected
Drug metabolism (Plasma [14]): metabolite_not_detected
Drug excretion [15]: metabolite_not_detected
Drug excretion [16]: metabolite_not_detected
Drug excretion [17]: metabolite_not_detected
Retention_time (Rattus norvegicus): 15.2 min
Drug excretion [18]: metabolite_detected
Drug uptake (Plasma [19]): Active
Stability (Plasma [20]): Stable
Tmax [21]: 0.73 h
Drug excretion [22]: metabolite_detected
Cmax [23]: 452 ng/mL
Drug excretion [24]: metabolite_not_detected
Tmax [25]: 2.89 h
Drug excretion [26]: metabolite_detected
half-life [27]: 2.6 h
MRT inf [28]: 7.52 h
SMILES: O=c1c2cc(O)c(O)cc2oc2cc(O)c([C@@H]3O[C@H](CO)[C@@H](O)[C@H](O)[C@H]3O)c(O)c12 [MANGIFERIN]
